Results taken from patent US20240261414A1, “FATTY ACID AMIDE HYDROLASE (FAAH) CLEAVABLE PRODRUGS OF BRAIN TARGETING ACTIVES AND COMBINATION WITH PERIPHERALLY RESTRICTED FAAH INHIBITORS” (Autobahn Therapeutics, Inc., priority 2021, published 2024).

Target: T1, recombinant human FAAH (rhFAAH) (Homo sapiens, UniProt O00519)
T1 construct: purchased Cayman Chemical (Ann Arbor, MI, USA)
T1 sequence (O00519 1-579): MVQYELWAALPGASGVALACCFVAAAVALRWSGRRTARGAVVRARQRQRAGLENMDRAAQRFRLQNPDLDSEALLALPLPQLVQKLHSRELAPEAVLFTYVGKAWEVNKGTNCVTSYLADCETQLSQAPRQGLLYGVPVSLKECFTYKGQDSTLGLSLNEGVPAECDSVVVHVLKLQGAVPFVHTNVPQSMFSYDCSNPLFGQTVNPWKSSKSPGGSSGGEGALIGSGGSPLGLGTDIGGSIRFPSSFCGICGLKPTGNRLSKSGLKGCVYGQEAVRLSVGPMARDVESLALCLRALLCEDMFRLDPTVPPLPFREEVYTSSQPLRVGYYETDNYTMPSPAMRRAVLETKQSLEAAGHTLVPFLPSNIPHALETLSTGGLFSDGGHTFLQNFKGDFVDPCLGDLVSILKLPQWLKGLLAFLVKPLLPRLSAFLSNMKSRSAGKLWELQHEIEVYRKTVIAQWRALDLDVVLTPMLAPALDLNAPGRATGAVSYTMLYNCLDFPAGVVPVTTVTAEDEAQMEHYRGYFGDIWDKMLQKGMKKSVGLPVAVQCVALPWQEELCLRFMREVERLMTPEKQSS
Test: FAAH substrate evaluation (acid metabolite formation)
Type: biochemical
Conditions: 0.5 ng/L rhFAAH, 1 μM test compound, Tris-EDTA buffer pH 8.0, room temperature, 0-60 minutes
Method: Purified recombinant human FAAH (rhFAAH) was purchased from Cayman Chemical (Ann Arbor, MI, USA). The total volume for each incubation was 400 μL containing a final 0.5 ng/L rhFAAH, 1 μM test compound, 1.25% ethanol or 1 μM PF-3845 (FAAH inhibitor), and 0.1% bovine serum albumin in Tris-EDTA buffer at pH 8.0). The positive control was LL-341001. The incubation was conducted at the room temperature. At 0, 5, 15, 30 and 60 minutes, an aliquot of 30 μL reaction mixtures was removed and mixed with 300 μL acetonitrile containing 5 ng/mL terfenadine and 10 ng/mL tolbutamide as internal standards to quench the reaction. The resulting mixture was centrifuged at 4000 rpm, 4° C. for 15 minutes, and 100 μL supernatant was ready for LC-MS/MS analysis to measure the formation of acid metabolite.
Acquity Ultra Performance LC system from Waters was used for sample analysis. The chromatography was performed on a reverse phase Kinetex 2.6 μm C18 column, 2.1×30 mm, 100 Å. The mobile phase A comprised of 0.1% formic acid in water and mobile phase B comprised of 0.1% formic acid in acetonitrile with a 2-min run time at the flow rate of 0.8 mL/min for the acid metabolite from positive control or a 1.5 min run time at the flow rate of 0.9 mL/min for the acid metabolite of test compounds. The mass spectrometer (API-5500 and API Q Trap 4000 Applied Biosystems/MDS SCIEX Instruments, Framingham, MA, USA) was operated under ESI positive or negative ion MRM mode.
The formation of acid metabolite was monitored and quantified using one calibration point of 1 μM. The observed rate constant (ke) for the acid metabolite formation was calculated by plotting the metabolite concentration versus time of incubation with the slope being ke and is shown in Table 2.

SMILES | ke (observed rate constant for the acid metabolite formation)
CCCCC[C@H](O)CC[C@@H]1[C@H]2Cc3cccc(OCC(=O)Nc4ccncc4)c3C[C@H]2C[C@H]1O [Compound 55] | A (ke is more than or equal to 1.0)
Cc1c(C=CC(=O)NCCCF)ccc(OCc2cc(Cl)cc3c2OC(C)(C)C3)c1C [Compound 6, 3-(4-((5-chloro-2,2-dimethyl-2,3-dihydrobenzofuran-7-yl)methoxy)-2,3-dimethylphenyl)-N-(3-fluoropropyl)propenamide] | B (ke is less than 1.0 and more than or equal to 0.1)
Cc1noc(-c2ccc(NC(=O)CCC(=O)NCCCF)cc2F)c1NC(=O)O[C@H](C)c1ccccc1Cl [Compound 30] | B (ke is less than 1.0 and more than or equal to 0.1)
Cc1c(C=CC(=O)NCCO)ccc(OCc2cc(Cl)cc3c2OC(C)(C)C3)c1C [Compound 11, 3-(4-((5-chloro-2,2-dimethyl-2,3-dihydrobenzofuran-7-yl)methoxy)-2,3-dimethylphenyl)-N-(2-hydroxyethyl)propenamide] | A (ke is more than or equal to 1.0)
Cc1noc(-c2ccc(CSCCC(=O)N[C@@H]3C[C@H]3F)cc2)c1NC(=O)OC(C)c1ccccc1Cl (stereo partly drawn) [Compound 40] | C (ke is less than 0.1 and more than 0)
CCc1cc(/C(C)=N/OCc2ccc(C3CCCCC3)c(C(F)(F)F)c2)ccc1CN1CC(C(=O)NC2CC2F)C1 (stereo not drawn) [Compound 28] | D (ke is 0)
O=C(C[C@H]1CCc2c1[nH]c1ccc(OCc3ccc(C4CCCC4)c(C(F)(F)F)c3)cc21)Nc1ccncc1 [Compound 47] | D (ke is 0)
CCCCC[C@H](O)CC[C@@H]1[C@H]2Cc3cccc(OCC(=O)Nc4cccnn4)c3C[C@H]2C[C@H]1O [Compound 53] | A (ke is more than or equal to 1.0)
Cc1noc(-c2ccc(CSCCC(N)=O)cc2)c1NC(=O)O[C@H](C)c1ccccc1Cl [Compound 24] | B (ke is less than 1.0 and more than or equal to 0.1)
O=C(Nc1ccnnc1)c1ccc2nc(-c3cc(Cl)cc(Cl)c3)oc2c1 [Compound 50] | A (ke is more than or equal to 1.0)
Cc1noc(-c2ccc(CSCCC(=O)NC3CC3)cc2)c1NC(=O)OC(C)c1ccccc1Cl (stereo not drawn) [Compound 33] | D (ke is 0)
O=C(Nc1ccncc1)c1ccc2nc(-c3cc(Cl)cc(Cl)c3)oc2c1 [Compound 57] | D (ke is 0)
O=C(Nc1cccnc1)c1ccc2nc(-c3cc(Cl)cc(Cl)c3)oc2c1 [Compound 52] | A (ke is more than or equal to 1.0)
CCCCC[C@H](O)CC[C@@H]1[C@H]2Cc3cccc(OCC(=O)NC)c3C[C@H]2C[C@H]1O [Compound 13] | D (ke is 0)
Cc1c(C=CC(=O)N[C@@H]2C[C@@H]2F)ccc(OCc2cc(Cl)cc3c2OC(C)(C)C3)c1C [Compound 5, 3-(4-((5-chloro-2,2-dimethyl-2,3-dihydrobenzofuran-7-yl)methoxy)-2,3-dimethylphenyl)-N-((1R,2S)-2-fluorocyclopropyl)propenamide] | B (ke is less than 1.0 and more than or equal to 0.1)
CCc1cc(/C(C)=N/OCc2ccc(C3CCCCC3)c(C(F)(F)F)c2)ccc1CN1CC(C(N)=O)C1 [Compound 19] | D (ke is 0)
CNC(=O)C[C@H]1CCc2c1[nH]c1ccc(OCc3ccc(C4CCCC4)c(C(F)(F)F)c3)cc21 [Compound 21] | D (ke is 0)
COc1ccc(NC(=O)c2ccc3nc(-c4cc(Cl)cc(Cl)c4)oc3c2)nn1 [Compound 37] | B (ke is less than 1.0 and more than or equal to 0.1)

SMILES | ke (observed rate constant for the acid metabolite formation)
CCc1cc(/C(C)=N/OCc2ccc(C3CCCCC3)c(C(F)(F)F)c2)ccc1CN1CC(C(=O)NCCO)C1 [Compound 17] | A (ke is more than or equal to 1.0)
Cc1c(C=CC(=O)N[C@@H]2C[C@H]2F)ccc(OCc2cc(Cl)cc3c2OC(C)(C)C3)c1C [Compound 4, 3-(4-((5-chloro-2,2-dimethyl-2,3-dihydrobenzofuran-7-yl)methoxy)-2,3-dimethylphenyl)-N-((1R,2R)-2-fluorocyclopropyl)propenamide] | B (ke is less than 1.0 and more than or equal to 0.1)
CCc1cc(/C(C)=N/OCc2ccc(C3CCCCC3)c(C(F)(F)F)c2)ccc1CN1CC(C(=O)Nc2ccncc2)C1 [Compound 38] | A (ke is more than or equal to 1.0)
CCCCC[C@H](O)CC[C@@H]1[C@H]2Cc3cccc(OCC(=O)NC4CC4)c3C[C@H]2C[C@H]1O [Compound 12] | C (ke is less than 0.1 and more than 0)
CCCCC[C@H](O)CC[C@@H]1[C@H]2Cc3cccc(OCC(=O)N[C@H]4C[C@@H]4F)c3C[C@H]2C[C@H]1O [Compound 48] | B (ke is less than 1.0 and more than or equal to 0.1)
Cc1noc(-c2ccc(CSCCC(=O)Nc3cccnn3)cc2)c1NC(=O)O[C@H](C)c1ccccc1Cl [Compound 41] | B (ke is less than 1.0 and more than or equal to 0.1)
Cc1noc(-c2ccc(CSCCC(=O)NCCCF)cc2)c1NC(=O)O[C@H](C)c1ccccc1Cl [Compound 46] | C (ke is less than 0.1 and more than 0)
Cc1n[nH]c(C)c1CCCOc1cc(C(N)=O)ccc1F [Compound 36] | D (ke is 0)
Cc1c(CCC(=O)Nc2ccncc2)ccc(OCc2cc(Cl)cc3c2OC(C)(C)C3)c1C [Compound 35] | B (ke is less than 1.0 and more than or equal to 0.1)
Cc1c(C=CC(=O)Nc2ccncc2)ccc(OCc2cc(Cl)cc3c2OC(C)(C)C3)c1C [Compound 7, 3-(4-((5-chloro-2,2-dimethyl-2,3-dihydrobenzofuran-7-yl)methoxy)-2,3-dimethylphenyl)-N-(pyridin-4-yl)propenamide] | A (ke is more than or equal to 1.0)
O=C(C[C@H]1CCc2c1[nH]c1ccc(OCc3ccc(C4CCCC4)c(C(F)(F)F)c3)cc21)NC1CC1F (stereo partly drawn) [Compound 32] | C (ke is less than 0.1 and more than 0)
O=C(C[C@H]1CCc2c1[nH]c1ccc(OCc3ccc(C4CCCC4)c(C(F)(F)F)c3)cc21)Nc1cccnn1 [Compound 43] | B (ke is less than 1.0 and more than or equal to 0.1)
Cc1c(CCC(=O)NC2CC2)ccc(OCc2cc(Cl)cc3c2OC(C)(C)C3)c1C [Compound 3, 3-(4-((5-chloro-2,2-dimethyl-2,3-dihydrobenzofuran-7-yl)methoxy)-2,3-dimethylphenyl)-N-cyclopropylpropanamide] | B (ke is less than 1.0 and more than or equal to 0.1)
Cc1noc(-c2ccc(CSCCC(=O)N[C@H]3C[C@H]3F)cc2)c1NC(=O)OC(C)c1ccccc1Cl (stereo partly drawn) [Compound 45] | C (ke is less than 0.1 and more than 0)
Cc1noc(-c2ccc(CSCCC(=O)Nc3ccncc3)cc2)c1NC(=O)OC(C)c1ccccc1Cl (stereo not drawn) [Compound 44] | B (ke is less than 1.0 and more than or equal to 0.1)
O=C(NC1CC1)c1ccc2nc(-c3cc(Cl)cc(Cl)c3)oc2c1 [Compound 15] | D (ke is 0)
CCCCC[C@H](O)CC[C@@H]1[C@H]2Cc3cccc(OCC(N)=O)c3C[C@H]2C[C@H]1O [Compound 14] | B (ke is less than 1.0 and more than or equal to 0.1)
Cc1noc(-c2ccc(NC(=O)CCC(=O)NC3CC3)cc2F)c1NC(=O)O[C@H](C)c1ccccc1Cl [Compound 31] | D (ke is 0)
